Assay results reported in patent US4990650A, “Aromatic derivative and preparation method thereof” (Teijin Limited, priority 1986, dated 1991).

Experiments:
LTB4 production [1] = assay: LTB4 production inhibition effect on iris of normal house rabbit; assay type: cell-based; details: Oryctolagus cuniculus, n=4; for inhibition at 100 µM: 10^-4 M; for inhibition at 10 µM: 10^-5 M; for inhibition at 1 µM: 10^-6 M; for inhibition at 0.1 µM: 10^-7 M
Protocol: LTB4 production inhibition effect on iris of normal house rabbit
The iris of a normal house rabbit was enucleated, dipped in 1 cc of Tylord solution for control and 1 cc of Tylord solution containing a certain level of medicament, and after 5 minutes, the Tylord solution was passed through a SEP-pack, the portion containing leucotriene was separated by HPLC, and the LTB4 amount was measured by radioimmunoassay. (n=4)

LTB4 production [2] = assay: LTB4 production inhibition effect on human blood (Calcium ionophore-stimulated whole blood); assay type: cell-based; details: 10^-5 M Calcium ionophore, Control 20
Protocol: LTB4 production inhibition effect on human blood
A 10^-5 M amount of Calcium ionophore was added to human whole blood, followed by adding the compounds listed in Table 2 to evaluate the inhibition effect of these compounds on LTB4 production. The evaluation was carried out in a manner described in Gresele, P., Arnoult, J., Coene, M. C., Deckmyn, H., and Vermylen, J.: Leukotriene B4 production by stimulated whole blood: Comparative studies with isolated polymorphonuclear cells, Biochem. Biophys. Res. Commun. 137: 334-342, 1986.

[3] = system: intraocular inflammation by Lipopoly saccharide from E. Coli; assay: Effect of eye drops on endotoxin intraocular inflammation by Lipopoly saccharide from E. Coli; assay type: in vivo, white male house rabbit; details: 20 hours after LPS
Protocol: Effect on intraocular inflammation by Lipopoly saccharide from E. Coli
The eye drops of the compound (3), i.e., anthranylic acid amide of 8-(2-naphthyl)-5,6-trans-5,6-methano-7E-octenoic acid was prepared by formulating 3.8 mg of the compound (3) in 0.1 ml of ethanol followed by adding 0.9 ml of teel oil to obtain eye drops containing 0.38% of compound (3). The pH was 6.8.
The eye drops of the compound (7), i.e., 3,4-dimethoxy cinnamic acid ester of 8-(2-naphthyl)-5,6-trans-5,6-methano-7E-octene-1-ol were prepared by dissolving 5.3 mg of the compound (7) in 0.1 ml of ethanol upon heating at 70° C. to 80° C. followed by adding 0.9 ml of teel oil to obtain eye drops containing 0.53% of compound (7). The pH was 6.8.
Into one eye of a white male house rabbit having a body weight of 1.5 to 2.0 kg, were dropped the eye drops of the compounds (3) and (7), at 6 hours, 4 hours, and 1 hour before the experiment, and into the other eye, control eye drops containing 0.1 ml ethanol and 0.9 ml teel oil were dropped in the same manner.
To the vitreous body, 5 μg of lipopoly saccharide from E. coli (commercially available from Sigma) in 50 μl of physiolological saline was dropped. After 20 hours, the aqueous humor was taken and the protein content of the aqueous humor was determined by a Bio-rad assay method and the leucocyte in the aqueous humor was determined by a Neubauer Chamber. The LTB4 in the aqueous humor was determined by the HPLC and RIA methods.

Compound | inhibition at 100 µM (LTB4 production [1]) [%] | inhibition at 10 µM (LTB4 production [1]) [%] | inhibition at 1 µM (LTB4 production [1]) [%] | inhibition at 0.1 µM (LTB4 production [1]) [%] | LTB4 production Amount (LTB4 production [2]; 10^-5 M) [µg/mL] | LTB4 production Amount (LTB4 production [2]; 10^-6 M) [µg/mL] | LTB4 production Amount (LTB4 production [2]; 10^-7 M) [µg/mL] | Leucocyle in aqueous ([3]; eye drops 0.38% at 6, 4 and 1 hour before, Control 10.1 × 10^5) | Aqueous protein ([3]; eye drops 0.38% at 6, 4 and 1 hour before, Control 30) [mg/mL] | LTB4 in aqueous ([3]; eye drops 0.38% at 6, 4 and 1 hour before, Control 150) [pg/mL] | Leucocyle in aqueous ([3]; eye drops 0.53% at 6, 4 and 1 hour before, Control 5.5 × 10^5) | Aqueous protein ([3]; eye drops 0.53% at 6, 4 and 1 hour before, Control 33) [mg/mL] | LTB4 in aqueous ([3]; eye drops 0.53% at 6, 4 and 1 hour before, Control 320) [pg/mL]
COC(=O)c1ccccc1NC(=O)CCC[C@H]1C[C@@H]1/C=C/c1ccc2ccccc2c1 (relative stereo) [Compound (3), Methyl anthranylate amide of 8-(2-naphthyl)-5,6-trans-5,6-methano-7E-octenoic acid] | 95 | 95 | 89 | 67 | 11 | 12 | 15 | 6.0 × 10^5 cells/ml | 40 | 7.5 |  |  | 
COc1ccc(/C=C/C(=O)OCCCC[C@H]2C[C@@H]2/C=C/c2ccc3ccccc3c2)cc1OC (relative stereo) [Compound (7), 3,4-Dimethoxycinnamic acid ester of 8-(2-naphthyl)-5,6-trans-5,6-methano-7 E-octene-1-ol] | 92 | 88 | 80 | 20 | 12 | 12 | 13 |  |  |  | 7.5 × 10^5 cells/ml | 41 | 170
O=C(O)CCC[C@H]1C[C@@H]1/C=C/c1ccc2ccccc2c1 (relative stereo) [Reference compound, reference compound] | 35 | 0 |  |  |  |  |  |  |  |  |  |  | 
